Measured values taken from article PMC6145916, “Interaction of mitochondrial fission factor with dynamin related protein 1 governs physiological mitochondrial function in vivo” (Scientific Reports, 2018).
Where no end group is shown, it is not given here.

Key:
primary cortical neurons = assay: Mitochondrial motility, primary cortical neurons; format: cell-based, rat; details: 4 µM P259, one hour
Method: Bottom, quantification of the form factor (degree of branching) and aspect ratio (major/minor axis length). At least 10,000 mitochondrial fragments were analyzed for each condition. Mitochondrial reactive oxygen species production (MitoSox Red) (b) and membrane potential (TMRM) (c) after overnight treatment with indicated concentrations of peptide (n = 3, with 3 replicates). […] Overlay of live microscopy imaging at time 0 (green) and 150 (red) seconds. […] An estimation of the % mobile mitochondria from the Pearson coefficient of each set of images. Data are mean ± s.e.
To quantify mitochondrial motility, the TMRM images were colored green and red at times 0 and 150 seconds, respectively. Mitochondrial motility corresponded to decreased co-localization of the two colors (Fig. 3d). […] Therefore, Mff-mediated anchoring of Drp1 on the outer mitochondrial membrane was necessary for mitochondrial motility in primary cortical neurons.
DMI6000B inverted microscope. All mitochondria were imaged with a GFP fi lter. Then, green […]
filter every 30 seconds for 5 minutes. The initial image was subtracted from each subsequent image to track signal change over time. […]
GFP filter (Keyence). […] The GFP and MitoSox signals were measured in a ring around each nucleus. Average MitoSox levels were quantified in […]
To quantify mitochondrial motility, the images at time 0 and 150 seconds w ere overlaid. […]

[1] = tested on: neuroblastoma SH-SY5Y cells; assay: Mitochondrial morphology (Tom20 immunofluorescence), SH-SY5Y; format: cell-based, human
Method: Represented Western blot is cropped from a full blot shown in the Expanded Western Blots section of the Supplementary Information. […] Hoechst 33342 is shown in blue and Tom20 in green (n = 3, 10 images each). Below, quantification of the form factor (degree of branching) and major axis length (length of mitochondria). At least 6,000 mitochondrial fragments were measured for each condition. Mitochondrial reactive oxygen species (ROS) production (MitoSox Red) (c) and mitochondrial membrane potential (TMRM) (d) after overnight treatment with indicated concentrations of peptide or FCCP. Data are from 3 independent experiments per condition normalized to the average no peptide value. (e) Relative mitochondrial ROS (MitoSox Red) signal in GFP positive cells expressing full-length or alanine-substituted P259 at indicated amino acids after two days of transfection. Values are normalized to a GFP empty vector (n = 3, with 3 replicates). […] Data are mean ± s.e. […]
Cells were fixed onto Permanox plastic slides with 4% paraformaldehyde in PBS for 10 minutes at room temperature. Cells were permeabilized in 0.1% Triton X-100 and 1% normal goat serum (blocking buffer) for one hour at room temperature. Permeabilized cells were incubated overnight with primary anti-Tom20 antibody (Santa Cruze Biotech, sc-11415, 1:250 dilution) in a humidified chamber. Slides were subsequently incubated with FITC-conjugated goat anti-rabbit IgG for two hours at room temperature in a light-shielding humidified chamber. Cells were washed with blocking buffer and stained with Hoechst 33342 (Invitrogen, OR, USA, […]). Coverslips were mounted with a Slowfade antifade solution (Invitrogen, OR, USA). Images were acquired using an LSM 700 confocal laser-s canning microsc ope equipped with a Plan Apochromat 63x/1.4 NA oil-immersion objective (Zeiss).
Mitochondrial morphology analysis
High-throughput image analysis of mitochondrial morphology was performed using MATLAB with the Image Processing toolkit. Background illumination, obtained by morphological opening of the image, was subtracted from the original image. The image was then passed through a top - hat transformation to highlight objects from the background followed by a pixel-wis e adaptive low-pas s Wiener filter to remove noise. A 90th percentile threshold was used to convert the image to a binary image. Erroneously large and small objects were removed from the image and morphological features were extracted from the binary objects. Major axis length is defined as th e length of the longest line that can be drawn through a binary object while the minor axis length is defined as the length of the shortest line. The aspect ratio is defined by the major axis length divided by the minor axis length. […]

[2] = 4 µM TAT-P259, 30-minute treatment, vs TAT, n = 3

## YGRKKRRQRRRGSGIIQLPEIVVV-NH2 (C-terminus assumed) [P259]
Primary cortical neurons; TMRM images 0 vs 150 sec, estimated from Pearson coefficient, basal approximately 37%, n = 4 control and 6 P259
  % mobile mitochondria: ~ 22%
Primary cortical neurons; vs no peptide control
  decline in the proportion of mobile mitochondria: 40%
[1]; [2]
  form factor (degree of branching): higher form factors
  major axis length: increased major axis lengths
[1]; 4 µM TAT-P259 or 10 µM Mdivi-1, 30-minute treatment, n = 3, 10 images each
  mitochondrial morphology: more elongated and branched mitochondria
